Measurements taken from US20090233848A1, “Pea15 as a Tumor Suppressor Gene” (priority 2004, published 2009).

Test system: MDA-MB-361 tumor xenografts
Test: Tumor growth in HER2-overexpressing MDA-MB-361 breast cancer xenograft model
Type: in vivo, nude mice
Conditions: 20 μg DNA; paclitaxel 15 mg/kg i.p.; compared with LPD-Luciferase
Protocol: Female nude mice were inoculated with HER2-overexpressing MDA-MB-361 cells in the mammary fat pad. After the formation of 8-10 tumors per group (5 animals per group, -2 tumors per animal), mice were given one of the following treatments: naked E1A DNA (20 μg DNA, light circles), vehicle only (small squares), LPD-luciferase (20 μg DNA, triangles), LPD-E1A (20 μg DNA, dark circles), paclitaxel (15 mg/kg, light triangles), or LPD-E1A (20 μg DNA) plus paclitaxel (15 mg/kg) (large squares). The tumor growth ratio was determined by comparing the size of the treated tumors with the size of the original tumor before any treatment. The error bars indicate s.e.m.

CC(=O)O[C@H]1C(=O)[C@@]2(C)[C@H]([C@H](OC(=O)c3ccccc3)[C@]3(O)C[C@H](OC(=O)[C@H](O)[C@@H](NC(=O)c4ccccc4)c4ccccc4)C(C)=C1C3(C)C)[C@]1(OC(C)=O)CO[C@@H]1C[C@@H]2O [paclitaxel]
tumor growth: decreased tumor growth
